Data on 41 compounds can be found in patent publication US20230053688A1, “METHODS TO ALTER LATENCY IN EBV+ MALIGNANCIES” (Cornell University, priority 2020, published 2023).

Structures can show the parent of a compound that is named as a salt. Where two headings read alike, the source gives them in different places.

The test relates to LMP1 expression in Kem I cells. Briefly: microbe, parasite or virus in culture. In kind it is cell-based, EBV. To be noted: for fold induction at 2.5 µM: human gammaherpesvirus 4, 48 h.
[1] abbreviates: read-out: Average LMP1 Fold Increase, Kem I cells, 2.5 uM, 48 hours, average of replicates 1 and 2.
Where [2] appears, read: read-out: Replicate 1-LMP1 Fold Increase, Kem I cells, 2.5 uM, 48 hours, fold change in LMP1 transcript vs vehicle.
Where [3] appears, read: read-out: Replicate 2-LMP1 Fold Increase, Kem I cells, 2.5 uM, 48 hours, fold change in LMP1 transcript vs vehicle.
Setting [4] is: Kem I cells, 2.5 uM, 48 hours, average of replicates 1 and 2.
Setting [5] is: Kem I cells, 2.5 uM, 48 hours, fold change in LMP1 transcript vs vehicle.

Regarding `O=C(C[S+]([O-])Cc1ccco1)NC/C=C\COc1cc(CN2CCCCC2)ccn1` (stereo not drawn) [Lafutidine], the fold induction at 2.5 µM under setting [1] was determined as 0.85, the fold induction at 2.5 µM under setting [2] was 0.94 and the fold induction at 2.5 µM under setting [3] is 0.76.
`Nc1cccc2c1CN(C1CCC(=O)NC1=O)C2=O` (stereo not drawn) [Lenalidomide (CC-5013)]: under setting [4], the “Average LMP1 Fold Increase” value was found to be 1.74. Moreover, under setting [5], the “Replicate 1-LMP1 Fold Increase” value is recorded as 1.57 and the “Replicate 2-LMP1 Fold Increase” value is on record as 1.91.
For `N#Cc1ccc(C(c2ccc(C#N)cc2)n2cncn2)cc1` [Letrozole], the fold induction at 2.5 µM runs as follows: under setting [1], 1.05; under setting [2], 0.66; under setting [3], 1.44.
The corresponding values for `CCN1CCC[C@H]1CNC(=O)c1cc(S(N)(=O)=O)ccc1OC` [Levosulpiride] are 0.5, 0.7 and 0.3.
The corresponding values for `CC#CCn1c(N2CCC[C@@H](N)C2)nc2c1c(=O)n(Cc1nc(C)c3ccccc3n1)c(=O)n2C` [Linagliptin] are 0.91, 1.01 and 0.81.
As for `Nc1nc(OCc2cc(Br)cs2)c2[nH]cnc2n1` [Lomeguatrib], the fold induction at 2.5 µM under setting [1] came to 1.09, the fold induction at 2.5 µM under setting [2] worked out at 0.57 and the fold induction at 2.5 µM under setting [3] was determined as 1.61.
`CCOC(=O)N1CCC(=C2c3ccc(Cl)cc3CCc3cccnc32)CC1` [Loratadine]: the fold induction at 2.5 µM is, setting by setting: under setting [1], 0.28; under setting [2], 0.24; under setting [3], 0.32.
On to `CCCCc1nc(Cl)c(CO)n1Cc1ccc(-c2ccccc2-c2nnn[n-]2)cc1.[K+]` [Losartan Potassium (DuP 753)], for which the “Average LMP1 Fold Increase” value under setting [4] is reported as 0.35. Under setting [5], the “Replicate 1-LMP1 Fold Increase” value is 0.21 and the “Replicate 2-LMP1 Fold Increase” value was 0.48.
`CC[C@H](C)C(=O)O[C@H]1C[C@@H](C)C=C2C=C[C@H](C)[C@H](CC[C@@H]3C[C@@H](O)CC(=O)O3)[C@H]21` [Lovastatin]: the fold induction at 2.5 µM under setting [1] is 0.96, the fold induction at 2.5 µM under setting [2] came out at 0.34 and the fold induction at 2.5 µM under setting [3] turned out to be 1.59.
For `CC(C)CCNC(=O)[C@H](CC(C)C)NC(=O)[C@H]1O[C@@H]1C(=O)O` [Loxistatin Acid (E-64C)], the “Average LMP1 Fold Increase” value under setting [4] was found to be 0.55. Also, under setting [5], the “Replicate 1-LMP1 Fold Increase” value came to 0.62 and the “Replicate 2-LMP1 Fold Increase” value worked out at 0.48.
On to `C=CCn1c(=O)c2cnc(Nc3ccc(N4CCN(C)CC4)cc3)nc2n1-c1cccc(C(C)(C)O)n1` [MK-1775], for which the fold induction at 2.5 µM worked out at 5.22 under setting [1], 6.01 under setting [2] and 4.43 under setting [3].
As to `Cl.Cl.NC1(c2ccc(-c3nc4ccn5c(=O)[nH]nc5c4cc3-c3ccccc3)cc2)CCC1` [MK-2206 2HCl], the “Average LMP1 Fold Increase” value under setting [4] turned out to be 0.51. Moreover, under setting [5], the “Replicate 1-LMP1 Fold Increase” value came to 0.44 and the “Replicate 2-LMP1 Fold Increase” value was determined as 0.59.
Consider `C[C@](O)(COc1ccc(C#N)cc1)C(=O)Nc1ccc(C#N)c(C(F)(F)F)c1` [MK-2866 (GTx-024)], for which, under setting [4], the “Average LMP1 Fold Increase” value was found to be 0.64. Also, under setting [5], the “Replicate 1-LMP1 Fold Increase” value was determined as 0.72 and the “Replicate 2-LMP1 Fold Increase” value is 0.56.
For the compound `O=C(O)Cn1nnc(-c2cc(N3CCC(Oc4cc(F)ccc4Br)CC3)no2)n1` [MK-8245], the fold induction at 2.5 µM is, setting by setting: under setting [1], 1.17; under setting [2], 1.51; under setting [3], 0.84.
For `COc1ccc(CNCc2cccc3ccccc23)cc1.Cl` [ML133 HCl], the “Average LMP1 Fold Increase” value under setting [4] was found to be 0.54. Moreover, under setting [5], the “Replicate 1-LMP1 Fold Increase” value was 0.42 and the “Replicate 2-LMP1 Fold Increase” value came to 0.67.
On to `CCCC(=O)Nc1cccc(NC(=O)c2ccccc2Br)c1` [ML161], for which the “Average LMP1 Fold Increase” value under setting [4] stood at 0.83. Under setting [5], the “Replicate 1-LMP1 Fold Increase” value was found to be 1.11 and the “Replicate 2-LMP1 Fold Increase” value came to 0.54.
`COc1ccc(-c2cnc3c(-c4cccc5ncccc45)cnn3c2)cc1` [ML347]: under setting [4], the “Average LMP1 Fold Increase” value was determined as 0.34. Moreover, under setting [5], the “Replicate 1-LMP1 Fold Increase” value is 0.19 and the “Replicate 2-LMP1 Fold Increase” value is listed as 0.49.
With `CC(C)C[C@H](NC(=O)CNC(=O)c1cc(Cl)ccc1Cl)B(O)O` [MLN2238], the fold induction at 2.5 µM by setting is: under setting [1], 112; under setting [2], 86.8; under setting [3], 138.
`O=C(O)c1ccc(Nc2ncc3c(n2)-c2ccc(Cl)cc2C(c2c(F)cccc2F)=NC3)cc1` [MLN8054]: the fold induction at 2.5 µM worked out at 0.37 under setting [1], 0.27 under setting [2] and 0.47 under setting [3].
In the case of `CCC(CC)(NC(=O)C(C)C)C(=O)N[C@@H](CCCN=C(N)N)C(=O)NC1(C(=O)NC(c2ccc(F)cc2)c2ccc(F)cc2)CCCC1` [MM-102], the “Average LMP1 Fold Increase” value under setting [4] is 0.27. In addition, under setting [5], the “Replicate 1-LMP1 Fold Increase” value amounted to 0.27 and the “Replicate 2-LMP1 Fold Increase” value was 0.27.
Consider `S=C=Nc1cccc(NC(=S)NCCCCNC(=S)Nc2cccc(N=C=S)c2)c1` [MRS 2578], for which the “Average LMP1 Fold Increase” value under setting [4] is recorded as 0.47. Besides, under setting [5], the “Replicate 1-LMP1 Fold Increase” value was determined as 0.64 and the “Replicate 2-LMP1 Fold Increase” value was found to be 0.31.
Taken in the same sequence, the figures for `COc1cc(-n2c(=S)[nH]c3ccccc3c2=O)c(Cl)cc1Cl` [Mdivi-1] were 0.64, 0.51 and 0.77.
`CC12CC3CC(C)(C1)CC(N)(C3)C2` [Memantine HCl]: the fold induction at 2.5 µM is, setting by setting: under setting [1], 0.42; under setting [2], 0.55; under setting [3], 0.3.
Taken in the same sequence, the figures for `Nc1nc(CC(=O)Nc2ccc(CCNC[C@H](O)c3ccccc3)cc2)cs1` [Mirabegron] were 0.75, 0.74 and 0.76.
As to `O=C(NCCN1CCOCC1)c1ccc(Cl)cc1` [Moclobemide (Ro 111163)], under setting [4], the “Average LMP1 Fold Increase” value amounted to 0.55. Further, under setting [5], the “Replicate 1-LMP1 Fold Increase” value came out at 0.28 and the “Replicate 2-LMP1 Fold Increase” value came to 0.81.
For the compound `Cc1ccccc1C(=O)Nc1ccc(C(=O)N2CCCC(N(C)C)c3ccccc32)cc1` (stereo not drawn) [Mozavaptan], the fold induction at 2.5 µM by setting is: under setting [1], 0.61; under setting [2], 0.32; under setting [3], 0.9.
For `FC(F)(F)c1ccc(/C=C/c2nc(COc3ccc(CCCCn4ccnn4)cc3)co2)cc1` [Mubritinib (TAK 165)], the “Average LMP1 Fold Increase” value is 0.68, the “Replicate 1-LMP1 Fold Increase” value is 0.74 and the “Replicate 2-LMP1 Fold Increase” value is 0.62.
Regarding `CCCCCCCCCCCCCCCCn1cc[n+](Cc2ccccc2)c1C.[I-]` [NH125], the “Average LMP1 Fold Increase” value under setting [4] is 0.70. Besides, under setting [5], the “Replicate 1-LMP1 Fold Increase” value worked out at 0.94 and the “Replicate 2-LMP1 Fold Increase” value amounted to 0.46.
Take `Cc1cc(OCc2nnc(SC3CCCC3)n2-c2cccnc2)ccc1-c1ccc(S(C)(=O)=O)cc1` [NMS-873]: the fold induction at 2.5 µM reads like this: under setting [1], 1; under setting [2], 1.05; under setting [3], 0.95.
Take `CC(C)(Cc1ccc2ccccc2c1)NC[C@@H](O)COc1cccc(Cl)c1C#N` [NPS-2143]: under setting [4], the “Average LMP1 Fold Increase” value was 0.74. Also, under setting [5], the “Replicate 1-LMP1 Fold Increase” value is on record as 0.87 and the “Replicate 2-LMP1 Fold Increase” value turned out to be 0.62.
`Cc1ccc(S(=O)(=O)c2ccc([N+](=O)[O-])o2)cc1` [NSC697923]: under setting [4], the “Average LMP1 Fold Increase” value is recorded as 0.09. Under setting [5], the “Replicate 1-LMP1 Fold Increase” value is given as 0.10 and the “Replicate 2-LMP1 Fold Increase” value is listed as 0.09.
Consider `CCN(CC)CCCC(C)Nc1nc(C)cc(Nc2ccc3nc(C)cc(N)c3c2)n1` (stereo not drawn) [NSC 23766], for which the “Average LMP1 Fold Increase” value under setting [4] is 0.82. Under setting [5], the “Replicate 1-LMP1 Fold Increase” value is recorded as 0.62 and the “Replicate 2-LMP1 Fold Increase” value came to 1.01.
The corresponding values for `C/C(=N\NC(=S)N1CCC1)c1ccccn1` [NSC 319726] are 19.87, 7.26 and 32.48.
Turning to `CCCC(C)NC(=O)c1ccc(Cl)c(Cl)c1` (stereo not drawn) [NSC 405020], the “Average LMP1 Fold Increase” value under setting [4] was 0.39. In addition, under setting [5], the “Replicate 1-LMP1 Fold Increase” value is listed as 0.50 and the “Replicate 2-LMP1 Fold Increase” value came out at 0.28.
The corresponding values for `O=c1cc(N2CCOCC2)oc2c1ccc1ccccc12` [NU7026] are 0.77, 0.47 and 1.07.
On to `Nc1ncnc2c1c(-c1cccc(OCc3ccccc3)c1)cn2C1CC(CN2CCCC2)C1` (stereo not drawn) [NVP-ADW742], for which the “Average LMP1 Fold Increase” value under setting [4] worked out at 0.40. Also, under setting [5], the “Replicate 1-LMP1 Fold Increase” value is 0.27 and the “Replicate 2-LMP1 Fold Increase” value amounted to 0.53.
Turning to `COc1ccccc1N1CCN(CC(O)COc2cccc3ccccc23)CC1` (stereo not drawn) [Naftopidil], the fold induction at 2.5 µM is 1.15 under setting [1], 1.36 under setting [2] and 0.95 under setting [3].
The corresponding values for `O=C1CC[C@@]2(O)[C@H]3Cc4ccc(O)c5c4[C@@]2(CCN3CC2CC2)[C@H]1O5` [Naltrexone HCl] are 0.27, 0.34 and 0.19.
For the compound `COc1ccc2cc([C@H](C)C(=O)O)ccc2c1` [Naproxen], the fold induction at 2.5 µM is 0.62 under setting [1], 0.69 under setting [2] and 0.56 under setting [3].
As for `OC(CNCC(O)C1CCc2cc(F)ccc2O1)C1CCc2cc(F)ccc2O1` (stereo not drawn) [Nebivolol], the fold induction at 2.5 µM under setting [1] amounted to 1.16, the fold induction at 2.5 µM under setting [2] worked out at 0.83 and the fold induction at 2.5 µM under setting [3] amounted to 1.49.
Take `CN1C(=O)C(Cc2c[nH]c3ccccc23)NC1=S` (stereo not drawn) [Necrostatin-1]: the “Average LMP1 Fold Increase” value under setting [4] turned out to be 1.08. For the same compound, under setting [5], the “Replicate 1-LMP1 Fold Increase” value was 0.99 and the “Replicate 2-LMP1 Fold Increase” value turned out to be 1.17.
